Earlier results on one substance are cited in publication PMC8812516 (Proceedings of the National Academy of Sciences of the …, 2022).

The data set has as its system Shaker-IR channel.

For charybdotoxin, the “effect of inactivation on affinity of toxins” value is listed as “inactivation does not alter the affinity of toxins for that channel”.
